# Legend:
# human DGAT1 = target: T1, human DGAT1 (Homo sapiens, UniProt O75907); assay: Inhibition of DGAT1 activity, FlashPlate assay with DGAT1 membrane preparations and substrate micelles; assay type: biochemical; conditions: pIC50 = -logIC50, IC50 values expressed in M
# T1 construct: FLAG (N); made in house; host or cells: SF9 insect cells (pFastBac baculovirus); total cell membranes
# T1 sequence (O75907 1-488): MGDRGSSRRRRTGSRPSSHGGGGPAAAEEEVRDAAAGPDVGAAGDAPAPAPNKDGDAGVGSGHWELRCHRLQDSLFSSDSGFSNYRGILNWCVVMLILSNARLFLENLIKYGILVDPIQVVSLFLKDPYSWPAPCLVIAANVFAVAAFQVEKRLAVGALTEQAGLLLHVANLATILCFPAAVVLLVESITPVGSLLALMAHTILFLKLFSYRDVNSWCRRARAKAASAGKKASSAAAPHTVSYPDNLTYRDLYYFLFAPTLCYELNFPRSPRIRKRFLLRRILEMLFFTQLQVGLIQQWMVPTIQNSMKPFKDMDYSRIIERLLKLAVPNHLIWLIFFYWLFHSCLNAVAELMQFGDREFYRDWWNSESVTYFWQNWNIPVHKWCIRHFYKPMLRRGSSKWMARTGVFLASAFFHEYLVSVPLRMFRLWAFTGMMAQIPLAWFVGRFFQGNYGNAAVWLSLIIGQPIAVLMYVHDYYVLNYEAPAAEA
# Procedure, shortened: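 FLAG-tagged human DGAT1 membranes (expressed in Sf9 cells) were incubated 120 min at 37° C. in 50 mM Tris-HCl pH 7.4 with 150 mM MgCl2, 1 mM EDTA, 0.2% BSA, 50 μM DAG micelles (PC/PS) and 8.4 μM [^3H]-oleoylCoA. The reaction was stopped with N-ethylmaleimide and read as FlashPlate radioluminescence. Responses were normalized to enzyme/no-enzyme controls to fit dose-response curves.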
melting point,IC50 (human DGAT1),SMILES
170.3 °C,3310 nM,O=C(CCCc1ccccc1)Nc1ccc(N2CCN(C(=O)Nc3cc(C(F)(F)F)ccc3Cl)CC2)cc1 [Compound 81]
173.6 °C,75.9 nM,O=C(CCCc1ccccc1)Nc1ccc(N2CCN(C(=O)Nc3c(F)cc(F)cc3F)CC2)cc1 [Compound 82]
181.2 °C,3310 nM,O=C(CCCc1ccccc1)Nc1ccc(N2CCN(C(=O)Nc3c(F)c(F)c(F)c(F)c3F)CC2)cc1 [Compound 87]
225.1 °C,479 nM,O=C(CCCc1ccccc1)Nc1ccc(N2CCN(C(=O)Nc3c(Cl)c(Cl)cc(Cl)c3Cl)CC2)cc1 [Compound 88]
214 to 215 °C,64.6 nM,CN(CC(=O)Nc1ccc(N2CCN(C(=O)Nc3c(Cl)cccc3Cl)CC2)cc1)C(=O)NC(C)(C)C [Compound 165]
232 to 234 °C,63.1 nM,CC(C)C(=O)N(C)CC(=O)Nc1ccc(N2CCN(C(=O)Nc3c(Cl)cccc3Cl)CC2)cc1 [Compound 166]
253 to 255 °C,28.2 nM,CN(CC(=O)Nc1ccc(N2CCN(C(=O)Nc3c(Cl)cccc3Cl)CC2)cc1)C(=O)Cc1ccccc1 [Compound 171]
192 to 193 °C,347 nM,O=C(CCNCc1ccc(F)cc1)Nc1ccc(N2CCN(C(=O)Nc3c(Cl)cccc3Cl)CC2)cc1 [Compound 174]
232 to 233 °C,6170 nM,CC1CCCN1CCC(=O)Nc1ccc(N2CCN(C(=O)Nc3c(Cl)cccc3Cl)CC2)cc1 (stereo not drawn) [Compound 176]
128 to 129 °C,245 nM,COc1ccc(CNCC(=O)Nc2ccc(N3CCN(C(=O)Nc4c(Cl)cccc4Cl)CC3)cc2)cc1 [Compound 177]
183 to 184 °C,75.9 nM,O=C(CNCc1ccc(Cl)cc1)Nc1ccc(N2CCN(C(=O)Nc3c(Cl)cccc3Cl)CC2)cc1 [Compound 178]
220 to 222 °C,1070 nM,CC1CCCN1CC(=O)Nc1ccc(N2CCN(C(=O)Nc3c(Cl)cccc3Cl)CC2)cc1 (stereo not drawn) [Compound 179]
163 to 165 °C,75.9 nM,Cc1ccc(CNCC(=O)Nc2ccc(N3CCN(C(=O)Nc4c(Cl)cccc4Cl)CC3)cc2)c(C)c1 [Compound 181]
226 to 227 °C,12.6 nM,C=CCN(CCC(=O)Nc1ccc(N2CCN(C(=O)Nc3c(Cl)cccc3Cl)CC2)cc1)c1ccc(C)cc1C [Compound 183]
202 to 203 °C,3.72 nM,Cc1ccc(NCC(=O)Nc2ccc(N3CCN(C(=O)Nc4c(Cl)cc(O)cc4Cl)CC3)cc2)c(C)c1 [Compound 185]
181 to 182 °C,13.8 nM,C=CCN(CC(=O)Nc1ccc(N2CCN(C(=O)Nc3c(Cl)cc(OC)cc3OC)CC2)cc1)c1ccc(C)cc1C [Compound 186]
208 to 210 °C,74.1 nM,COc1cc(Cl)c(NC(=O)N2CCN(c3ccc(NC(=O)CCCc4ccccc4)cc3)CC2)c(OC)c1 [Compound 188]
263 to 264 °C,339 nM,O=C(CCc1ccncc1)Nc1ccc(N2CCN(C(=O)Nc3c(Cl)cccc3Cl)CC2)cc1 [Compound 193]
233 to 234 °C,33.9 nM,O=C(CCCc1cccnc1)Nc1ccc(N2CCN(C(=O)Nc3c(Cl)cccc3Cl)CC2)cc1 [Compound 194]
194 to 196 °C,6760 nM,CN(C)CCC(=O)Nc1ccc(N2CCN(C(=O)Nc3c(Cl)cccc3Cl)CC2)cc1 [Compound 196]
251 to 252 °C,123 nM,O=C(CCCc1ccncc1)Nc1ccc(N2CCN(C(=O)Nc3c(Cl)cccc3Cl)CC2)cc1 [Compound 197]
260 to 261 °C,229 nM,O=C(CCc1cccnc1)Nc1ccc(N2CCN(C(=O)Nc3c(Cl)cccc3Cl)CC2)cc1 [Compound 198]
245 to 246 °C,3630 nM,CN(C)CC(=O)Nc1ccc(N2CCN(C(=O)Nc3c(Cl)cccc3Cl)CC2)cc1 [Compound 200]
245 to 246 °C,107 nM,C=CC(=O)Nc1ccc(N2CCN(C(=O)Nc3c(Cl)cccc3Cl)CC2)cc1 [Compound 202]
212.29 °C,9.55 nM,COc1cc(CNC(=O)c2ccc(N3CCN(C(=O)Cc4c(Cl)cccc4Cl)CC3)cc2)cc(OC)c1 [Compound 225]
180.99 °C,42.7 nM,COc1ccc(CNC(=O)c2ccc(N3CCN(C(=O)Cc4c(Cl)cccc4Cl)CC3)cc2)c(OC)c1 [Compound 230]
222.04 °C,46.8 nM,COc1ccc(CNC(=O)c2ccc(N3CCN(C(=O)Nc4c(Cl)cc(CN5CCCC5)cc4Cl)CC3)cc2)cc1 [Compound 232]

# Second part, the molecule before the results:
SMILES,melting point,IC50 (human DGAT1)
CCCc1ccccc1NC(=O)N1CCN(c2ccc(NC(=O)CCCc3ccccc3)cc2)CC1 [Compound 77],200.2 °C,1660 nM
O=C(CCCc1ccccc1)Nc1ccc(N2CCN(C(=O)Nc3ccccc3I)CC2)cc1 [Compound 78],153.3 °C,126 nM
CSc1ccccc1NC(=O)N1CCN(c2ccc(NC(=O)CCCc3ccccc3)cc2)CC1 [Compound 79],127.1 °C,1450 nM
O=C(CCCc1ccccc1)Nc1ccc(N2CCN(C(=O)Nc3ccccc3OC(F)(F)F)CC2)cc1 [Compound 84],162.2 °C,1480 nM
CC(C)(C)CC(C)(C)NC(=O)N1CCN(c2ccc(NC(=O)CCCc3ccccc3)cc2)CC1 [Compound 85],202.3 °C,1950 nM
CCC(C)c1ccccc1NC(=O)N1CCN(c2ccc(NC(=O)CCCc3ccccc3)cc2)CC1 (stereo not drawn) [Compound 86],207.8 °C,1700 nM
CC(C)(C)c1ccccc1NC(=O)N1CCN(c2ccc(NC(=O)CCCc3ccccc3)cc2)CC1 [Compound 89],227.2 °C,2190 nM
CC(C)c1ccccc1NC(=O)N1CCN(c2ccc(NC(=O)CCCc3ccccc3)cc2)CC1 [Compound 90],214.2 °C,589 nM
CCOC(=O)c1ccccc1NC(=O)N1CCN(c2ccc(NC(=O)CCCc3ccccc3)cc2)CC1 [Compound 91],194.7 °C,5500 nM
COC(=O)c1ccccc1NC(=O)N1CCN(c2ccc(NC(=O)CCCc3ccccc3)cc2)CC1 [Compound 92],165.4 °C,7410 nM
CCc1ccccc1NC(=O)N1CCN(c2ccc(NC(=O)CCCc3ccccc3)cc2)CC1 [Compound 93],189 °C,240 nM
O=C(CCCc1ccccc1)Nc1ccc(N2CCN(C(=O)Nc3ccccc3F)CC2)cc1 [Compound 94],177.3 °C,295 nM
O=C(CCCc1ccccc1)Nc1ccc(N2CCN(C(=O)Nc3ccccc3Br)CC2)cc1 [Compound 95],147.4 °C,126 nM
Cc1ccccc1NC(=O)N1CCN(c2ccc(NC(=O)CCCc3ccccc3)cc2)CC1 [Compound 96],164.7 °C,75.9 nM
O=C(CCN1CCCCC1)Nc1ccc(N2CCN(C(=O)Nc3c(Cl)cccc3Cl)CC2)cc1 [Compound 138],241.1 °C,1320 nM
CS(=O)(=O)N1CCN(CCC(=O)Nc2ccc(N3CCN(C(=O)Nc4c(Cl)cccc4Cl)CC3)cc2)CC1 [Compound 172],250 to 252 °C,603 nM
COc1ccc(CN(CCC(=O)Nc2ccc(N3CCN(C(=O)Nc4c(Cl)cccc4Cl)CC3)cc2)S(=O)(=O)c2ccccc2[N+](=O)[O-])cc1 [Compound 173],197 to 199 °C,34.7 nM
O=C(CCN(Cc1ccc(F)cc1)S(=O)(=O)c1ccccc1[N+](=O)[O-])Nc1ccc(N2CCN(C(=O)Nc3c(Cl)cccc3Cl)CC2)cc1 [Compound 175],215 to 216 °C,24 nM
O=C(CNC1CCCCC1)Nc1ccc(N2CCN(C(=O)Nc3c(Cl)cccc3Cl)CC2)cc1 [Compound 180],185 to 187 °C,407 nM
O=C(CCCc1ccccc1)Nc1ccc(N2CCN(C(=S)Nc3c(Cl)cccc3Cl)CC2)cc1 [Compound 189],238.7 °C,12 nM
O=C(CN1CCCC1)Nc1ccc(N2CCN(C(=O)Nc3c(Cl)cccc3Cl)CC2)cc1 [Compound 201],214 to 216 °C,1950 nM
CCOC(=O)c1ccc(CCCCCNC(=O)c2ccc(N3CCN(C(=O)Nc4c(Cl)cc(CN5CCCC5)cc4Cl)CC3)cc2)cc1 [Compound 226],180.97 °C,9.77 nM
COc1ccc(CNC(=O)c2ccc(N3CCN(C(=O)Nc4c(Cl)cc(CC(=O)N5CCN(C)CC5)cc4Cl)CC3)cc2)cc1 [Compound 228],220.01 °C,19.1 nM
O=C(NCc1cccc2ccccc12)c1ccc(N2CCN(C(=O)Cc3c(Cl)cccc3Cl)CC2)cc1 [Compound 229],242.15 °C,30.9 nM

# Reference: patent US8981094B2, “Piperidine/piperazine derivatives” (Janssen Pharmaceutica N.V., priority 2007, dated 2015)
